The values below come from paper PMC9763021, “Comprehensive Assessment of Biomolecular Interactions of Morpholine-Based Mixed Ligand Cu(II) and Zn(II) Complexes of 2,2′-Bipyridine as Potential Anticancer and SARS-CoV-2 Agents: A Synergistic Experimental and Structure-Based Virtual Screening” (Bioinorganic Chemistry and Applications, 2022).

Each structure is given as a SMILES string.

The subject of experiment [1] is ethidium bromide bound DNA (CT-DNA). Briefly: Ethidium bromide-DNA fluorescence quenching (emission titration). Type of experiment: binding, calf thymus. Particulars: for Scatchard analysis KSA / Scatchard analysis n / LWB method KLB: DNA; for Kass (DNA), SV method II / KSV (DNA), SV method I: EB-DNA; for KSV (DNA), SV method I: 610 nm; for Kapp: KEB = 10^7 M^−1 at 50 μM EB; for Kq (DNA), SV method I: Kq=KSV/τ0, τ0 = 10^−8 S; for LWB method KLB: Lineweaver–Burk; for P (DNA), ratio of fluorescence quantum efficiency: intercept of F/F0 vs 1/[DNA]; for n (DNA), SV method II: number of binding sites; for ∆Gb° (DNA), SV method II: –RT lnKass, 298 K. The procedure:
The experiment was performed in the 200 to 800 nm region. This is supporting evidence for the complexes' manner of deoxyribonucleic acid binding. When DNA (200 μM) was present or absent, we carefully monitored the intensity variations between 610 nm and 510 nm during the initial emission and excitation of EB [6, 28, 37]. Similarly, emission titrations for BSA interaction with different concentrations between 2.5 μM and 25 μM for all substances were conducted in a Tris-HCl buffer solution (pH: 7.4) between the regions of 300 nm and 400 nm.
Emission titration is a more sensitive approach to examining the binding tendency between chemical substances and biomolecules. The emission measurements are extensively supported to scrutinize the interacting modes between compounds and deoxyribonucleic acid. In the presence of deoxyribonucleic acid (240 μM) in a Tris-HCl buffer solution (pH: 7.2) at room temperature, none of the test compounds emitted fluorescence. The titrations were also executed with the EB molecule, which is also a comparatively low fluorescence emission in Tris-HCl buffer solution (pH: 7.2) in the free state. […] In the investigation, the addition of sample concentrations (0–240 μM) to the solution of DNA-EB results in a notable reduction in the emission intensity at 610 nm (Figure 5 and Table 4). As a result of intense intercalation, the complexes displace the EB in the DNA-EB adduct, causing the emission intensity to drop. The photoelectron shift from the DNA's guanine base to the excited states may be the cause of the frequency of quenching in the emission of chemicals by DNA. Therefore, EB can be utilized as a fluorescent probing agent in the competitive binding experiment.
K SV is denoted as Stern–Volmer binding constant; Kass is represented as association binding constant; Kapp is represented as apparent binding constant, Kapp=KEB[EB]/[compound]=500/[compound], KEB = 10^7 M^−1 at the concentration of 50 μM EB; Gibb's free energy change ΔGb°=–RT lnKass; Kq is represented as bimolecular quenching rate constant/Stern–Volmer dynamic quenching rate constant (Kq=KSV/τ0), average life time of the biomolecular quenching in the absence of a quencher (τ0) = 10^−8 S; Gibb's free energy change ΔGb°=–RT lnKass (where R = […], T = 298 K); KLB is represented as Lineweaver–Burk (LWB) binding constant; KSA is represented as Scatchard association binding constant; Kapp is denoted as apparent binding constant; n is the number of binding sites; P is a ratio of fluorescence quantum efficiency of DNA bound and free complex (P=ɸb/ɸf), which is obtained as intercept from plot F/F0 vs. 1/[DNA], Error limit is ± 2.5% (P < 0.025).(12) Fcorr=Fobs×e^Aex×dex+Aem×dem/2=Fobs×e^Aex+Aem/2, where Fcorr and Fobs are represented as the IFE-corrected fluorescence and observed (uncorrected) emission intensities, respectively. dex and dem are denoted as the cuvette path lengths in the excitation and emission directions, respectively. Aex and Aem are represented as the change in absorbance at the excitation and fluorescence wavelengths, respectively.(13) F0 /F=1+KSVQ=1+Kq τ0, where [Q] is represented as the sample concentration, the emission intensities F0 and F of DNA/BSA in the absence and presence of the quencher (sample), respectively.(14) F0 /F−1=F0−F/F=KSVQlogF0−F/F=logKass+n logQ, (15) KEBEB=Kappcompound, (16) 1/F0−F=1/F0 KLBQ+1/F0 , (17) γ/CF =KSCn−γ, where γ = [(F0 − F)/F0], and CF is denoted as the concentration of sample alone.
The linear regression correlation coefficient (R^2) values for all substances further confirmed that there is no found inner filter effect due to these values are greater than 0.95. Moreover, the following Stern–Volmer equations (13)–(15) were employed to determine the KSV, Kq, and n values (Table 4). The KSV findings were measured from the slope to intercept ratio of the linear regression plot of F0/F vs. [Q] by the SV method I (Figure S22). […]

The next experiment deals with BSA (Bos taurus, UniProt P02769). The experiment is described as follows: FRET computation, donor (BSA) - acceptor (compound). Details: kET (rate of energy transfer): unit not given here. The class given is binding, bovine. Particulars: for J, spectral overlap integral: BSA donor, compound acceptor; for B (brightness of complex-BSA system): free BSA = 6,573.60.
The subject of the next experiment is Aspergillus niger. The experiment is described as follows: Agar disc diffusion, strain H. The class given is cell-based. Particulars: for diameter of the clear zone inhibition: control = 6 mm. Details: (inhibition %): concentration or dose not given beside the values. As to the method: In-vitro antimicrobial properties were evaluated for all samples by the agar disc diffusion method towards different fungal and bacterial strains. Additionally, the reported inhibition zone values were comparatively analyzed with the standard antifungal drugs ketoconazole and amphotericin B as well as the standard antibiotic medications streptomycin and amikacin.
The current research has a curious focus on the in vitro antimicrobial properties of biological systems because these studies are crucial for developing effective antibacterial and antifungal medications. […] It can also be spelled out based on the chelation theory proposed by Overtone and Tweedy. Chelation theory points out that the partial exchanging of the positive charge of the metal center with donor moieties, and overlap of the ligand orbitals will reduce the greater degree of the metal ion's polarity, which ultimately rises the delocalization of π and d electrons over the full chelated ring system. By raising the size of the metal ion due to the retarding of polarization, chelation may also enhance the complexes' lipophilic characteristics, which further stimulate the lipid membrane permeability and break down the bacteria' enzymes responsible for cell wall formation, therefore slowing down the regular cell processes. By preventing the production of cell walls/proteins/DNA, including by obstructing folate metabolism and the cytoplasmic membrane, antimicrobial drugs frequently either fully eliminate microbes or only prevent their cell growth. Additionally, the samples' mode of action may be employed in disrupting the cell's respiration process by forming an H-bond during the morpholine-fused iminic group coordinated with the active metal center of its components, inhibiting proliferation of the cell. […] The difference in the antimicrobial efficacy of some of the compounds towards various microorganisms influences on the impermeability of the cells of the germs or the diversity of ribosomes of the microbes. The % of the inhibition of all substances is estimated from (45) (Table 9).
(A, B, C, D, and E are represented as gram negative bacteria species Escherichia coli, Salmonella enteric serovar typhi, Salmonella enteric serovar typhi, Pseudomonas aeruginosa, and Shigella flexneri, respectively. F & G are denoted as gram positive bacteria species Staphylococcus aureus and Bacillus cereus. H, I, and J are represented as fungal strains Aspergillus niger, Candida albicans, and Mucor indicus. Standard drugs for bacterial strains: Amikacin & Streptomycin Standard drugs for fungal strains: Ketoconazole and Amphotericin B. [Control (DMSO) = 6 mm].(44) Inhibition %=T–C/T×100, where T and C are represented as the diameter of microbial growth of the sample plates and the control plate (6 mm), respectively. Error limits ±2.5–5.0% (P ≤ 0.05).

As for `[Cu+2].[O-]c1ccccc1N=Cc1ccc(N2CCOCC2)cc1.[O-]c1ccccc1N=Cc1ccc(N2CCOCC2)cc1.c1ccc(-c2ccccn2)nc1` [(1a), [Cu(L)2(bpy)]], in experiment [1], the “Scatchard analysis KSA” value came out at 33151 M⁻¹; the Scatchard analysis n stood at 1.033; the “Kass (DNA), SV method II” value was 50564 M⁻¹; the “KSV (DNA), SV method I” value came to 52474 M⁻¹. Further, in experiment [1], the Kapp amounted to 9.894e+06 M⁻¹; the “Kq (DNA), SV method I” value amounted to 5.2474e+12 M⁻¹ s⁻¹; the “LWB method KLB” value was 18846 M⁻¹; the “P (DNA), ratio of fluorescence quantum efficiency” value (shortened to “P (DNA), ratio”) amounted to 0.2000. Besides, in experiment [1], the “n (DNA), SV method II” value came to 1.168 and the “∆Gb° (DNA), SV method II” value is recorded as −26.835 kJM^−1. Besides, on BSA, the “E (efficiency of energy transfer)” value was 0.5769, the “R0 (Förster radius)” value amounted to 2.4090 nm, the “kET (rate of energy transfer)” value was 13.6340 and the “r (donor-acceptor separation)” value is given as 2.2877 nm. Besides, on BSA, the “J, spectral overlap integral” value was 0.7607 × 10^−14 (LM^−1·cm^3) and the “B (brightness of complex-BSA system)” value was found to be 5187.78 M⁻¹ cm⁻¹. Further, in the experiment on Aspergillus niger, the “(inhibition %)” value was determined as 45% and the “diameter of the clear zone inhibition” value was 11 mm.

Take `Oc1ccccc1N=Cc1ccc(N2CCOCC2)cc1` [(HL), 2-(4-morpholinobenzylideneamino)phenol]: in experiment [1], the “Scatchard analysis KSA” value is 23194 M⁻¹; the Scatchard analysis n turned out to be 1.096; the “Kass (DNA), SV method II” value stood at 9606 M⁻¹; the “KSV (DNA), SV method I” value was 11636 M⁻¹. Besides, in experiment [1], the Kapp amounted to 5.829e+06 M⁻¹; the “Kq (DNA), SV method I” value is 1.1636e+12 M⁻¹ s⁻¹; the “LWB method KLB” value worked out at 6985 M⁻¹; the “P (DNA), ratio” value turned out to be 0.0900. Besides, in experiment [1], the “n (DNA), SV method II” value worked out at 0.973 and the “∆Gb° (DNA), SV method II” value is listed as −22.720 kJM^−1. Moreover, at BSA, the “E (efficiency of energy transfer)” value stood at 0.3462, the “R0 (Förster radius)” value was found to be 2.4400 nm, the “kET (rate of energy transfer)” value is recorded as 5.2957 and the “r (donor-acceptor separation)” value was 2.7127 nm. At BSA, the “J, spectral overlap integral” value is 0.8215 × 10^−14 (LM^−1·cm^3) and the “B (brightness of complex-BSA system)” value was determined as 5339.79 M⁻¹ cm⁻¹. Further, in the experiment with Aspergillus niger, the “(inhibition %)” value is given as 40% and the “diameter of the clear zone inhibition” value was 10 mm.

With `[O-]c1ccccc1N=Cc1ccc(N2CCOCC2)cc1.[O-]c1ccccc1N=Cc1ccc(N2CCOCC2)cc1.[Zn+2].c1ccc(-c2ccccn2)nc1` [(2a), [Zn(L)2(bpy)]], in experiment [1], the “Scatchard analysis KSA” value came to 30190 M⁻¹; the Scatchard analysis n was 0.971; the “Kass (DNA), SV method II” value is 17368 M⁻¹; the “KSV (DNA), SV method I” value was 32694 M⁻¹. Moreover, in experiment [1], the Kapp stood at 6.569e+06 M⁻¹; the “Kq (DNA), SV method I” value came out at 3.2694e+12 M⁻¹ s⁻¹; the “LWB method KLB” value stood at 15630 M⁻¹; the “P (DNA), ratio” value was found to be 0.1832. Further, in experiment [1], the “n (DNA), SV method II” value was 1.055 and the “∆Gb° (DNA), SV method II” value is given as −24.187 kJM^−1. Also, at BSA, the “E (efficiency of energy transfer)” value was 0.5615, the “R0 (Förster radius)” value turned out to be 2.2770 nm, the “kET (rate of energy transfer)” value turned out to be 10.4206 and the “r (donor-acceptor separation)” value worked out at 2.1851 nm. In addition, at BSA, the “J, spectral overlap integral” value was 0.5425 × 10^−14 (LM^−1·cm^3) and the “B (brightness of complex-BSA system)” value is 4642.53 M⁻¹ cm⁻¹. In addition, in the experiment with Aspergillus niger, the “(inhibition %)” value turned out to be 33% and the “diameter of the clear zone inhibition” value was determined as 09 mm.
